≈ marks a conversion by molar mass, not a printed value. Calls of active or inactive are those of the source. The rule behind the calls is not given here.
Columns and labels:
[1] = Aqueous solubility of the compound at pH 7; assay type: physicochemical
[2] = Inhibition of N-type calcium channel by FLIPR assay
[3] = Metabolic stability in rat liver microsomes assessed as compound remaining after 30 mins; assay type: ADME, Microsome; details: read-out: Stability
[4] = Metabolic stability in human liver microsomes assessed as compound remaining after 30 mins; assay type: ADME, Microsome; details: read-out: Stability
[5] = Half life in rat at 3 umol/kg, po; assay type: ADME, organism-based; details: in vivo
[6] = tested on: Rattus norvegicus; test: Volume of distribution at steady state in rat at 3 umol/kg, po; assay type: ADME, organism-based; details: in vivo
[7] = Plasma clearance in rat at 3 umol/kg, po; assay type: ADME, organism-based
[8] = Oral bioavailability in rat at 3 umol/kg; assay type: ADME, organism-based; details: in vivo
[9] = AUC in rat at 3 umol/kg, po; assay type: ADME, organism-based; details: plasma
[10] = tested on: Rattus norvegicus; test: Antinociceptive activity in rat capsaicin model of secondary mechanical hyperalgesia assessed as inhibition of tactile allodynia at 30 mg/kg, po; assay type: functional, organism-based; parameters: dose 30 mg/kg
[11] = Half life in rat at 5 umol/kg, iv and 30 umol/kg, po; assay type: ADME, organism-based; details: in vivo
[12] = Volume of distribution at steady state in rat at 5 umol/kg, iv and 30 umol/kg, po; assay type: ADME, organism-based; details: in vivo, read-out: Vdss
[13] = Plasma clearance in rat at 5 umol/kg, iv and 30 umol/kg, po; assay type: ADME, organism-based
[14] = Oral bioavailability in rat at 30 umol/kg; assay type: ADME, organism-based; details: in vivo
[15] = AUC in rat at 30 umol/kg, po; assay type: ADME, organism-based; details: plasma
[16] = tested on: Rattus norvegicus; test: Antinociceptive activity in rat capsaicin model of secondary mechanical hyperalgesia assessed as inhibition of tactile allodynia at 150 mg/kg, po; assay type: functional, organism-based; parameters: dose 150 mg/kg

SMILES	solubility [1]	IC50 [2]	pIC50 [2]	further results
O=C(CN1CCCC(c2ccccc2)(c2ccccc2)C1=O)N1CCC(c2ccccc2)(c2ccccc2)C1	< 25 µM	2430 nM	5.61	
O=C(CN1CCCC(c2ccccc2)(c2ccccc2)C1=O)N1CCN(C(c2ccc(F)cc2)c2ccc(F)cc2)CC1	< 25 µM	2360 nM	5.63	
O=C(CN1CCC(c2ccccc2)(c2ccccc2)C1=O)N1CCN(Cc2cccc(C(F)(F)F)c2)CC1	< 25 µM	1030 nM	5.99	remaining at 0.5 h [3]: 0.1%; remaining at 0.5 h [4]: 0.3%
O=C(CN1CCCC(c2ccccc2)(c2ccccc2)C1=O)N1CCN(Cc2ccc(C(F)(F)F)cc2)CC1	< 25 µM	1380 nM	5.86	
O=C(CN1CCC(c2ccccc2)(c2ccccc2)C1=O)N1CCN(Cc2c(Cl)cccc2Cl)CC1	< 25 µM	900 nM	6.04	
O=C(CN1CCCC(c2ccccc2)(c2ccccc2)C1=O)N1CCN(C(c2ccccc2)c2ccccc2)CC1	< 25 µM	1380 nM	5.86	remaining at 0.5 h [3]: 0.1%; remaining at 0.5 h [4]: 0.1%; half-life [5]: 5.2 h; Vdss [6]: 5.8 L/kg; CL/F [7]: 25 mL/min/kg; bioavailability [8]: 16.6%; AUC [9]: 186 ng·h/mL; inhibition [10]: Active
O=C(CN1CCCC(c2ccc(F)cc2)(c2ccc(F)cc2)C1=O)N1CCN(C(c2ccccc2)c2ccccc2)CC1	< 25 µM	4610 nM	5.34	
O=C(CN1CCCC(c2ccccc2)(c2ccccc2)C1=O)N1CCCC(c2ccccc2)(c2ccccc2)C1	< 25 µM	810 nM	6.09	
O=C(CN1CCC(c2ccccc2)(c2ccccc2)C1=O)N1CCN(C(c2ccccc2)c2ccccc2)CC1	< 25 µM	720 nM	6.14	remaining at 0.5 h [3]: 0.4%; half-life [5]: 5.6 h; Vdss [6]: 6.9 L/kg; CL/F [7]: 26.7 mL/min/kg; bioavailability [8]: 16.4%; AUC [9]: 159 ng·h/mL; inhibition [10]: Active
O=C(CN1CCC(c2ccc(F)cc2)(c2ccc(F)cc2)C1=O)N1CCN(C(c2ccccc2)c2ccccc2)CC1	< 25 µM	830 nM	6.08	remaining at 0.5 h [3]: 2%; remaining at 0.5 h [4]: 2.5%; half-life [5]: 7.2 h; Vdss [6]: 13.2 L/kg; CL/F [7]: 36.7 mL/min/kg; bioavailability [8]: 20.3%; AUC [9]: 160 ng·h/mL; inhibition [10]: Active
O=C(CN1CCCC(c2ccc(F)cc2)(c2ccc(F)cc2)C1=O)N1CCN(Cc2cccc(C(F)(F)F)c2)CC1	< 25 µM	1360 nM	5.87	
O=C(CN1CCCC(c2ccccc2)(c2ccccc2)C1=O)N1CCC(c2ccccc2)(c2ccccc2)CC1	< 25 µM	660 nM	6.18	half-life [11]: 6.3 h; Vd [12]: 11.4 L/kg; clearance [13]: 45 mL/min/kg; bioavailability [14]: 50%; AUC [15]: 2990 ng·h/mL
O=C(CN1CCC(c2ccc(F)cc2)(c2ccc(F)cc2)C1=O)N1CCN(Cc2cccc(C(F)(F)F)c2)CC1	< 25 µM	1010 nM	6	
O=C(CN1CCCC(c2ccccc2)(c2ccccc2)C1=O)N1CCc2ccc(C(F)(F)F)cc2C1	< 25 µM	4440 nM	5.35	
O=C(CN1CCCC(c2ccccc2)(c2ccccc2)C1=O)N1CCN(Cc2cccc(Cl)c2)CC1	< 25 µM	1320 nM	5.88	
O=C(CN1CCC(c2ccccc2)(c2ccccc2)C1=O)N1CCN(Cc2ccc(Cl)cc2Cl)CC1	< 25 µM	520 nM	6.28	
O=C(CN1CCCC(c2ccccc2)(c2ccccc2)C1=O)N1CCC(NC(c2ccccc2)c2ccccc2)CC1	< 25 µM	810 nM	6.09	remaining at 0.5 h [3]: < 0.1%; remaining at 0.5 h [4]: < 0.1%
O=C(CN1CCC(c2ccccc2)(c2ccccc2)C1=O)N1CCN(Cc2ccc(F)cc2)CC1	57 µM (≈ 26.9 µg/mL)	2220 nM	5.65	
O=C(CN1CCC(c2ccccc2)(c2ccccc2)C1=O)N1CCN(C(c2ccccc2)c2ccc(F)cc2)CC1 (stereo not drawn)	< 25 µM	450 nM	6.35	
O=C(CN1CCC(c2ccccc2)(c2ccccc2)C1=O)N1CCN(C(c2ccc(F)cc2)c2ccc(F)cc2)CC1	< 25 µM	430 nM	6.37	
O=C(CN1CCC(c2ccccc2)(c2ccccc2)C1=O)N1CCN(C(c2ccccc2)c2ccc(Cl)cc2)CC1 (stereo not drawn)	< 25 µM	1010 nM	5.99	
O=C(CN1CCCC(c2ccccc2)(c2ccccc2)C1=O)N1CCN(Cc2cccc(C(F)(F)F)c2)CC1	< 25 µM	930 nM	6.03	remaining at 0.5 h [3]: 1.2%; remaining at 0.5 h [4]: 0.1%; half-life [11]: 2.7 h; Vd [12]: 5.9 L/kg; clearance [13]: 41.7 mL/min/kg; bioavailability [14]: 15.6%; AUC [15]: 1000 ng·h/mL
O=C(CN1CCCC(c2ccccc2)(c2ccccc2)C1=O)N1CCN(Cc2ccc(Cl)cc2Cl)CC1	< 25 µM	1800 nM	5.75	
O=C(CN1CCCC(c2ccccc2)(c2ccccc2)C1=O)N1CCC(C(c2ccccc2)c2ccccc2)CC1	< 25 µM	2610 nM	5.58	
NCC1(CC(=O)O)CCCCC1				inhibition [16]: Active
O=C(CN1CCCC(c2ccccc2)(c2ccccc2)C1=O)N1CC(c2ccc(C(F)(F)F)cc2)C1	< 25 µM	3070 nM	5.51	
O=C(CN1CCCC(c2ccccc2)(c2ccccc2)C1=O)N1CCC(C(O)(c2ccccc2)c2ccccc2)CC1	< 25 µM	1740 nM	5.76	

Source: ChEMBL document CHEMBL1949568, “Discovery of diphenyl lactam derivatives as N-type calcium channel blockers” (Bioorg Med Chem Lett, 2012)
